Consider 6 compounds from ChEMBL document CHEMBL1141041, “Discovery of halogenated eurypamide B analogues as inhibitors of lipid droplet accumulation in macrophages” (Bioorg Med Chem Lett, 2005).

The nature of this assay: Inhibition of lipid droplets accumulation in mouse peritoneal macrophages as a model of macrophage-derived foam-cell formation. The format is functional.
`C[C@@H](OCc1ccccc1)C1NC(=O)[C@@H](NC(=O)OC(C)(C)C)Cc2ccc(O)c(c2)Oc2ccc(cc2)C[C@@H](C(=O)O)NC1=O` (stereo partly specified): the concentration for half-maximal inhibition (IC50) amounted to 3.2 µM.
On to `COC(=O)[C@@H]1Cc2ccc(cc2)Oc2cc(ccc2O)C[C@H](N)C(=O)NC([C@@H](C)OCc2ccccc2)C(=O)N1` (stereo partly specified), for which the IC50 was > 12.1 µM.
With `C[C@@H](O)C1NC(=O)[C@@H](NC(=O)OC(C)(C)C)Cc2ccc(O)c(c2)Oc2ccc(cc2)C[C@@H](C(=O)O)NC1=O` (stereo partly specified) the figure was > 12.1 µM.
`C[C@@H](O)[C@@H]1NC(=O)[C@@H](N)Cc2ccc(O)c(c2)Oc2ccc(cc2)C[C@@H](C(=O)O)NC1=O`: the IC50 is > 22.6 µM.
With `COC(=O)[C@@H]1Cc2ccc(cc2)Oc2cc(ccc2O)C[C@H](N)C(=O)N[C@@H]([C@@H](C)O)C(=O)N1`, the IC50 was > 13.5 µM.
For `C[C@@H](OCc1ccccc1)C1NC(=O)[C@@H](NC(=O)Oc2ccccc2)Cc2ccc(O)c(c2)Oc2ccc(cc2)C[C@@H](C(=O)O)NC1=O` (stereo partly specified) the value was 3.1 µM.

One may read the IC50 as the midpoint of a concentration-inhibition curve. Low values mean higher potency, high ones lower potency.
